Assay results published in publication PMC9952331, “Ethyl Gallate Isolated from Castanopsis cuspidata var. sieboldii Branches Inhibits Melanogenesis and Promotes Autophagy in B16F10 Cells” (Antioxidants, 2023).
Values after ≈ are worked out from the molar mass of the structure shown.

Legend:
mushroom tyrosinase [1] = experiment: enzyme kinetics with L-DOPA substrate, Lineweaver-Burk plot; IC50 […] also reported; type: biochemical
mushroom tyrosinase [2] = experiment: cell-free tyrosinase inhibition assay with L-tyrosine substrate, absorbance at […] nm; type: biochemical

CCOC(=O)c1cc(O)c(O)c(O)c1 [Compound 1, ethyl gallate]
Ki (mushroom tyrosinase [1]): 434 µM

O=C1O[C@H]([C@@H](O)CO)C(O)=C1O [ascorbic acid]
IC50 (mushroom tyrosinase [2]): 30.99 ± 0.86 µg/mL (≈ 176 µM)
